Experimental findings from US20220220103A1, “CYCLIN-DEPENDENT KINASE INHIBITORS” (SPV THERAPEUTICS INC., priority 2018, published 2022) are described below.

pIC50: −log10 of the molar value. Read-outs that look alike come from different tables or passages of the source.

What all share (assay type): biochemical
Test [1] has as its target CDK1/B (Homo sapiens, UniProt P06493). Kind of test: Inhibition assay, CDK1/B. The note with it: read-out: CDK1/B IC50. How it is done:
(§1) The reaction was terminated by the addition of EDTA. The plates were analyzed using a Caliper LabChip 3000.
(§2) Additional inhibition assays were performed as described above.

Test [2] addresses CDK4-CYCLIND1 (Homo sapiens, UniProt P11802). Kind of test: Microfluidic LabChip inhibition assay, CDK4-CYCLIND1. The following applies: ATP 200 μM, second values in parentheses on the line below, not explained, read-out: CDK4 CyclinD1 IC50. On the procedure: as §1, §2
Test [3] deals with CDK9-CYCLINT1 (Homo sapiens, UniProt P50750). Kind of test: Microfluidic LabChip inhibition assay, CDK9-CYCLINT1. The note with it: ATP 10 μM. How it is done:
as §1, §2

Test [4] has as its target CDK7 CyclinH (Homo sapiens, UniProt P50613). The test is described as follows: Inhibition assay, CDK7 CyclinH. On the procedure: as §1, §2
Test [5] addresses CDK2-CYCLINA (Homo sapiens, UniProt P24941). Kind of test: Microfluidic LabChip inhibition assay, CDK2-CYCLINA. The following applies: ATP 50 μM. On the procedure:
as §1, §2

Chain of CDK4-CYCLIND1 (P11802 whole entry): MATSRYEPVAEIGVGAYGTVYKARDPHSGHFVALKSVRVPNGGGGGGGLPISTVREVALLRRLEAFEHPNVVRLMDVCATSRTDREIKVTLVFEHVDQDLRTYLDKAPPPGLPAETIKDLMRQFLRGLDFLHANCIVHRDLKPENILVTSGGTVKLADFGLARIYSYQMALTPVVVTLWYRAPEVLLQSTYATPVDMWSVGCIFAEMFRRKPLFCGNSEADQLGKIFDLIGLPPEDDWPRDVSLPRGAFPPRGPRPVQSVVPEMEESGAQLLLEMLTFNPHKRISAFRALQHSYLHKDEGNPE
Chain of CDK4-CYCLIND1 (P24385 whole entry partner): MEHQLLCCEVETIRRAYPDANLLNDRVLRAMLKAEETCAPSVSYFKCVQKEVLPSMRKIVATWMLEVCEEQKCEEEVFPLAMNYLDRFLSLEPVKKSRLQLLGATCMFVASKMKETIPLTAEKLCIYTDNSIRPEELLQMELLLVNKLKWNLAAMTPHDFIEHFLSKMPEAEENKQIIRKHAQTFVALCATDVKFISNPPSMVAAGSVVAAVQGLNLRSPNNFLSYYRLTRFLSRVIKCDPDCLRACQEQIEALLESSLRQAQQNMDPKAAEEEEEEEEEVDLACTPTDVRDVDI
Chain of CDK1/B (P06493 whole entry): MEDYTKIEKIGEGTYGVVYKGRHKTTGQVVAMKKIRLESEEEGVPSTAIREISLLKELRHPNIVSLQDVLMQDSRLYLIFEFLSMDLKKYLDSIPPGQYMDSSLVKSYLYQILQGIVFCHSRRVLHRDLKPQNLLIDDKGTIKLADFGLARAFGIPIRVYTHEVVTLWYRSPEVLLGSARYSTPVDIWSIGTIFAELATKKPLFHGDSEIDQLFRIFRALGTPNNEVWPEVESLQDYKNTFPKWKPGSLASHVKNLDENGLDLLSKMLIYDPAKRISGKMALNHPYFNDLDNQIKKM
Chain of CDK1/B (P14635 whole entry partner): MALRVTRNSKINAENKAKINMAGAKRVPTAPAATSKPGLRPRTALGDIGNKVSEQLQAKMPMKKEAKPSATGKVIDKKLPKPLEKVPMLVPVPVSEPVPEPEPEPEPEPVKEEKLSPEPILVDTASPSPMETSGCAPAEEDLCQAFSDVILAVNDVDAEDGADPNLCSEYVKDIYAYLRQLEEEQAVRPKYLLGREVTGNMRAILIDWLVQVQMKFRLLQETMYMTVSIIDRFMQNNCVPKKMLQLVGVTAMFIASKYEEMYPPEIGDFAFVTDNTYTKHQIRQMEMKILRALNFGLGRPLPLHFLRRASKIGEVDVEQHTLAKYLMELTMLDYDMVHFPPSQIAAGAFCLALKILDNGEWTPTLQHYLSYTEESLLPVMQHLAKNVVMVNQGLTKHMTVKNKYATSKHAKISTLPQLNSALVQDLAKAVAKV
Chain of CDK9-CYCLINT1 (P50750 whole entry): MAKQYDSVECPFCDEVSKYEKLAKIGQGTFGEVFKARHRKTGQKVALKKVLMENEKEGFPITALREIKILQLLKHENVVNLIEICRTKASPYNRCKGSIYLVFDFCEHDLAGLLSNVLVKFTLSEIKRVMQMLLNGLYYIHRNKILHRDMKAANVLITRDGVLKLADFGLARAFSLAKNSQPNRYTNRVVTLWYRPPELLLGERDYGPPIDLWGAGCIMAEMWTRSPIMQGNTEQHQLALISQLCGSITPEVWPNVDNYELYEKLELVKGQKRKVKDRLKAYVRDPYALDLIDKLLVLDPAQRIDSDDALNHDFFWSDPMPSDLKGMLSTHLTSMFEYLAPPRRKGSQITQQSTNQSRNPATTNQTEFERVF
Chain of CDK9-CYCLINT1 (O60563 whole entry partner): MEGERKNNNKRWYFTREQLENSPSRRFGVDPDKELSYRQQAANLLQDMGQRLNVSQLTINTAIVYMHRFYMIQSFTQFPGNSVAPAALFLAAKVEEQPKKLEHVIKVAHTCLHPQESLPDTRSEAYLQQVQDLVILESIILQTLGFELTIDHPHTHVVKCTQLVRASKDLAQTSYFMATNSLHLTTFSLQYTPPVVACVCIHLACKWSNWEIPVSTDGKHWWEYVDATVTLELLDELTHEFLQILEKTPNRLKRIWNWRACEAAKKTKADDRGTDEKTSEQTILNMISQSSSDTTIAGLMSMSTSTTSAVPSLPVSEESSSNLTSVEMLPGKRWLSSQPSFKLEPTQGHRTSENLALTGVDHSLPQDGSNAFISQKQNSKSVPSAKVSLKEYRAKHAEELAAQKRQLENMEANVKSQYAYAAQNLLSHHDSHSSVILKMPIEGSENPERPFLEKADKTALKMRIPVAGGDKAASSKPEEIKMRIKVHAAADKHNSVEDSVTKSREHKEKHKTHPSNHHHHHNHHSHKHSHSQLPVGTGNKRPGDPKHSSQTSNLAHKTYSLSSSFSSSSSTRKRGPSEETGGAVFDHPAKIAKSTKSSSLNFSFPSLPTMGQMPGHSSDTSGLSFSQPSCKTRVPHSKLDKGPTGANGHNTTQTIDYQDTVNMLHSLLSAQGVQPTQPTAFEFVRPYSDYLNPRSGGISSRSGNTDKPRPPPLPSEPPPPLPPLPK
Chain of CDK7 CyclinH (P50613 whole entry): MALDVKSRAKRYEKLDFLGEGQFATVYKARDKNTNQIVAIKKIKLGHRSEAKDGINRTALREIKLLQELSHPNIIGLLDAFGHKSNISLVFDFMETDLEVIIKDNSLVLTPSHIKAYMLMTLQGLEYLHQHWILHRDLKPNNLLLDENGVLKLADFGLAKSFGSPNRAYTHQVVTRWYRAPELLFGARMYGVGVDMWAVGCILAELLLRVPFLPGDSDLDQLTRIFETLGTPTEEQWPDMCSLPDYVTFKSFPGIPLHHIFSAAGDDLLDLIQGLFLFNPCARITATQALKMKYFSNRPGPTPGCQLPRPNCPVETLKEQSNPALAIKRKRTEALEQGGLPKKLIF
Chain of CDK7 CyclinH (P51946 whole entry partner): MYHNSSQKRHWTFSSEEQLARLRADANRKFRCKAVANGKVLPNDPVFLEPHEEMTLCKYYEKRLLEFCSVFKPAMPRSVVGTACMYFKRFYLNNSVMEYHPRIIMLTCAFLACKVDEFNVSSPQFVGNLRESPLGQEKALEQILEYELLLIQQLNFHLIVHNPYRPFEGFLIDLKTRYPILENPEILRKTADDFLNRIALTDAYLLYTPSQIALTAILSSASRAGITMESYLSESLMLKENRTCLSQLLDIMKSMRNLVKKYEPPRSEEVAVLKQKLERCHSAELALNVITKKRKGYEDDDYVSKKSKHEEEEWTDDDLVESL
Chain of CDK7 CyclinH (P51948 whole entry partner): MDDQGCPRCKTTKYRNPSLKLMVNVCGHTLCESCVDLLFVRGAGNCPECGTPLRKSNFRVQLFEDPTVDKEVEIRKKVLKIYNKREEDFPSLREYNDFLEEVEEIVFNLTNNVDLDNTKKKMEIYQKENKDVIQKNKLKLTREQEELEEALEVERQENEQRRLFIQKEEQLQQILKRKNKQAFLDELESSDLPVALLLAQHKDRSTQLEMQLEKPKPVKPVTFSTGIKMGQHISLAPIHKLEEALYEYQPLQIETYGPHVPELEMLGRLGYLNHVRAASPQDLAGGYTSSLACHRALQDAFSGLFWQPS

As for `CC(=O)c1c(C)c2cnc(Nc3ccc(N4CCN(C)CC4)cc3)nc2n(C23CC(C2)C3)c1=O` [Compound B96, 6-acetyl-8-(bicyclo[1.1.1]pentan-1-yl)-5-methyl-2-((4-(4-methylpiperazin-1-yl)phenyl)amino)pyrido[2,3-d]pyrimidin-7(8H)-one], the pIC50 in test [1] (Table 3a) was 5.39; in test [2] (Table 3a) it was 8.12; in test [2] (Table 3b), 8.12; in test [3] (Table 3a), 7.01; in test [3] (Table 3b), 7.01; in test [4] (Table 3a) it was 5.55. For the same molecule, the pIC50 in test [4] (Table 3b), in test [5] (Table 3a) and in test [5] (Table 3b) was 5.55 each time.
For `CN(C)C(=O)c1cc2cnc(NC3CCN(S(C)(=O)=O)CC3)nc2n(C2CCCC2)c1=O` [Compound B153, 8-cyclopentyl-N,N-dimethyl-2-((1-(methylsulfonyl)piperidin-4-yl)amino)-7-oxo-7,8-dihydropyrido[2,3-d]pyrimidine-6-carboxamide], the pIC50 in test [1] (Table 3a) is 6.12; in test [2] (Table 3a), 7.67; in test [2] (Table 3b), 7.67; in test [3] (Table 3a) it was 5.34; in test [3] (Table 3b) it was 5.34; in test [4] (Table 3a) it was below 5.00. Further, the values for the pIC50 in test [4] (Table 3b), in test [5] (Table 3a) and in test [5] (Table 3b) were below 5.00, 6.55 and 6.55, respectively.
Turning to `Cc1c(C(=O)N(C)C)c(=O)n(C23CC(C2)C3)c2nc(NC3CC4CCC3C4)ncc12` (stereo not drawn) [Compound B157, 8-(bicyclo[1.1.1]pentan-1-yl)-2-(bicyclo[2.2.1]heptan-2-ylamino)-N,N,5-trimethyl-7-oxo-7,8-dihydropyrido[2,3-d]pyrimidine-6-carboxamide], the pIC50 in test [1] (Table 3a) was below 5.00; in test [1] (Table 3b), below 5.00; in test [2] (Table 3a), 5.90; in test [2] (Table 3b), 5.90; in test [3] (Table 3a), 5.61; in test [3] (Table 3b) it was 5.61. Besides, the pIC50 is below 5.00 in test [4] (Table 3a), below 5.00 in test [4] (Table 3b), 5.28 in test [5] (Table 3a) and 5.28 in test [5] (Table 3b).
On to `Cc1c(C(=O)N(C)C)c(=O)n(C23CC(C2)C3)c2nc(NC3CCN(S(C)(=O)=O)CC3)ncc12` [Compound B156, 8-(bicyclo[1.1.1]pentan-1-yl)-N,N,5-trimethyl-2-((1-(methylsulfonyl)piperidin-4-yl)amino)-7-oxo-7,8-dihydropyrido[2,3-d]pyrimidine-6-carboxamide], for which the pIC50 in test [1] (Table 3a) is 5.55; in test [2] (Table 3a), 7.00; in test [2] (Table 3b), 7.00; in test [3] (Table 3a) it was below 5.00; in test [3] (Table 3b), below 5.00; in test [4] (Table 3a), below 5.00. For the same molecule, the pIC50 in test [4] (Table 3b) was below 5.00; in test [5] (Table 3a) it was 5.99; in test [5] (Table 3b), 5.99.
For `CC(=O)c1c(C)c2cnc(Nc3ccc(OCCN(C)C)cc3)nc2n(C2CCCC2)c1=O` [Compound B59, 6-acetyl-8-cyclopentyl-2-((4-(2-(dimethylamino)ethoxy)phenyl)amino)-5-methylpyrido[2,3-d]pyrimidin-7(8H)-one], the pIC50 is 6.28 in test [1] (Table 3a); above 8.49 in test [2] (Table 3a); above 8.49 in test [2] (Table 3b); above 8.49 in test [3] (Table 3a); above 8.49 in test [3] (Table 3b); 6.19 in test [4] (Table 3a). Also, the pIC50 is 6.19 in test [4] (Table 3b), 6.68 in test [5] (Table 3a) and 6.68 in test [5] (Table 3b).
Regarding `Cc1c(C(=O)N(C)C)c(=O)n(C23CC(C2)C3)c2nc(NC3CC4CCC3C4)ncc12` (stereo not drawn) [Compound B158, 8-(bicyclo[1.1.1]pentan-1-yl)-2-(bicyclo[2.2.1]heptan-2-ylamino)-N,N,5-trimethyl-7-oxo-7,8-dihydropyrido[2,3-d]pyrimidine-6-carboxamide], the pIC50 in test [1] (Table 3a) is below 5.00; in test [2] (Table 3a), 5.80; in test [2] (Table 3b) it was 5.80; in test [3] (Table 3a), 5.56; in test [3] (Table 3b) it was 5.56; in test [4] (Table 3a), below 5.00. The pIC50 in test [5] (Table 3a) and in test [5] (Table 3b) was below 5.00 each time.
In the case of `N#Cc1cc2cnc(Nc3ccc(N4CCN(CCO)CC4)c(F)c3)nc2n(C2CCCC2)c1=O` [Compound B106, 8-cyclopentyl-2-((3-fluoro-4-(4-(2-hydroxyethyl)piperazin-1-yl)phenyl)amino)-7-oxo-7,8-dihydropyrido[2,3-d]pyrimidine-6-carbonitrile], the pIC50 in test [1] (Table 3a) is 6.29; in test [2] (Table 3a) it was above 8.49; in test [2] (Table 3b), above 8.49; in test [3] (Table 3a), 7.56; in test [3] (Table 3b), 7.56; in test [4] (Table 3a) it was 6.49. Moreover, the values for the pIC50 in test [4] (Table 3b), in test [5] (Table 3a) and in test [5] (Table 3b) were 6.49, 6.51 and 6.51, respectively.
Take `Cc1c(C(=O)N(C)C)c(=O)n(C2CCCC2)c2nc(Nc3ccc(N4CC(C)NC(C)C4)cc3)ncc12` (stereo not drawn) [Compound B151, 8-cyclopentyl-2-((4-(3,5-dimethylpiperazin-1-yl)phenyl)amino)-N,N,5-trimethyl-7-oxo-7,8-dihydropyrido[2,3-d]pyrimidine-6-carboxamide]: the pIC50 in test [1] (Table 3a) is below 5.00; in test [1] (Table 3b) it was below 5.00; in test [2] (Table 3a), 8.05; in test [2] (Table 3b) it was 8.05; in test [3] (Table 3a), 5.29; in test [3] (Table 3b), 5.29. Further, the pIC50 in test [4] (Table 3a), in test [4] (Table 3b), in test [5] (Table 3a) and in test [5] (Table 3b) was below 5.00 in each case.
As to `CC(=O)c1c(C)c2cnc(Nc3ccc(OCCN4CCCC4)cn3)nc2n(C2CCCC2)c1=O` [Compound B66, 6-acetyl-8-cyclopentyl-5-methyl-2-((5-(2-(pyrrolidin-1-yl)ethoxy)pyridin-2-yl)amino)pyrido[2,3-d]pyrimidin-7(8H)-one], the pIC50 was below 5.00 in test [1] (Table 3a); below 5.00 in test [1] (Table 3b); 7.82 in test [2] (Table 3a); 7.82 in test [2] (Table 3b); 6.37 in test [3] (Table 3a); 6.37 in test [3] (Table 3b). Moreover, the pIC50 in test [4] (Table 3a), in test [4] (Table 3b), in test [5] (Table 3a) and in test [5] (Table 3b) was below 5.00 throughout.
Turning to `CN1CC2(C1)CN(c1ccc(Nc3ncc4cc(C#N)c(=O)n(C5CCCC5)c4n3)cc1)C2` [Compound B159, 8-cyclopentyl-2-((4-(6-methyl-2,6-diazaspiro[3.3]heptan-2-yl)phenyl)amino)-7-oxo-7,8-dihydropyrido[2,3-d]pyrimidine-6-carbonitrile], the pIC50 is 5.89 in test [1] (Table 3a); 8.40 in test [2] (Table 3a); 8.40 in test [2] (Table 3b); 7.04 in test [3] (Table 3a); 7.04 in test [3] (Table 3b); 5.62 in test [4] (Table 3a). Besides, the pIC50 in test [4] (Table 3b) was 5.62; in test [5] (Table 3a) it was 6.30; in test [5] (Table 3b) it was 6.30.
With `CS(=O)(=O)N1CCC(Nc2ncc3cc(C#N)c(=O)n(C45CC(C4)C5)c3n2)CC1` [Compound B113, 8-(bicyclo[1.1.1]pentan-1-yl)-2-((1-(methylsulfonyl)piperidin-4-yl)amino)-7-oxo-7,8-dihydropyrido[2,3-d]pyrimidine-6-carbonitrile], the pIC50 in test [1] (Table 3a), in test [1] (Table 3b), in test [2] (Table 3a), in test [2] (Table 3b), in test [3] (Table 3a) and in test [3] (Table 3b) was below 5.00 throughout. Further, the pIC50 in test [4] (Table 3a), in test [4] (Table 3b), in test [5] (Table 3a) and in test [5] (Table 3b) was below 5.00 in each case.
